Article PMC7686313, “Phase 1 study of mTORC1/2 inhibitor sapanisertib (TAK-228) in advanced solid tumours, with an expansion phase in renal, endometrial or bladder cancer” (British Journal of Cancer, 2020)

What was measured:
[1] = test system: advanced solid tumours; assay: Tumour response according to RECIST v1.1, advanced solid tumours; assay type: in vivo, human; conditions: for Duration of partial response (PR): dose-escalation
Method: Patients who received ≥1 dose of sapanisertib were included in the safety population. The response-evaluable population included patients who received ≥1 dose of sapanisertib, had measurable disease at baseline, and had ≥1 postbaseline assessment. In the dose-escalation phase, the evaluable population included patients who received ≥75% of the planned sapanisertib doses in cycle 1 or experienced a DLT. Response was assessed according to the RECIST v1.1[24] after every two treatment cycles. Adverse events (AEs) were assessed using the National Cancer Institute Common Terminology Criteria for Adverse Events, v4.0. Patients were provided with a home blood-glucose meter to monitor their fasting predose blood-glucose measurements to assess hyperglycaemia as an on-target AE and PD marker.

[2] = test system: refractory clear-cell RCC; set-up: method as in earlier work; conditions: single-agent 30 mg QW; cited from earlier work
[3] = dose-escalation QD 2–7 mg (n = 21)
[4] = dose-escalation QD × 3d 6–20 mg (n = 27)
[5] = dose-escalation QD × 5d 7–13 mg (n = 18)
[6] = dose-escalation QW 7–40 mg (n = 25)

Structure (SMILES): CC(C)n1nc(-c2ccc3oc(N)nc3c2)c2c(N)ncnc21 [Sapanisertib]
- Patients achieving PR ([1]; both phases): nine
- Patients with CR ([1]; both phases, 40 mg QW): One
- Best overall response CR [1, 3]: 0 n (%)
- Best overall response PD [1, 3]: 10 (48) n (%)
- Best overall response PR [1, 3]: 0 n (%)
- Best overall response SD < 6 months [1, 3]: 9 (43) n (%)
- Best overall response SD ≥ 6 months [1, 3]: 2 (10) n (%)
- CBR (CR + PR + SD ≥ 6 months) [1, 3]: 2 (10) n (%)
- ORR (CR + PR) [1, 3]: 0 n (%)
- Best overall response CR [1, 4]: 0 n (%)
- Best overall response PD [1, 4]: 14 (52) n (%)
- Best overall response PR [1, 4]: 0 n (%)
- Best overall response SD < 6 months [1, 4]: 12 (44) n (%)
- Best overall response SD ≥ 6 months [1, 4]: 1 (4) n (%)
- CBR (CR + PR + SD ≥ 6 months) [1, 4]: 1 (4) n (%)
- ORR (CR + PR) [1, 4]: 0 n (%)
- Best overall response CR [1, 5]: 0 n (%)
- Best overall response PD [1, 5]: 12 (67) n (%)
- Best overall response PR [1, 5]: 1 (6) n (%)
- Best overall response SD < 6 months [1, 5]: 4 (22) n (%)
- Best overall response SD ≥ 6 months [1, 5]: 1 (6) n (%)
- CBR (CR + PR + SD ≥ 6 months) [1, 5]: 2 (11) n (%)
- ORR (CR + PR) [1, 5]: 1 (6) n (%)
- Best overall response CR [1, 6]: 0 n (%)
- Best overall response PD [1, 6]: 13 (52) n (%)
- Best overall response PR [1, 6]: 2 (8) n (%)
- Best overall response SD < 6 months [1, 6]: 9 (36) n (%)
- Best overall response SD ≥ 6 months [1, 6]: 1 (4) n (%)
- CBR (CR + PR + SD ≥ 6 months) [1, 6]: 3 (12) n (%)
- ORR (CR + PR) [1, 6]: 2 (8) n (%)
- Duration of partial response (PR) ([1]; one patient with carcinoid tumour receiving 10 mg QD × 5dQW): > 32 months
- Duration of partial response (PR) ([1]; two patients with RCC receiving 15 mg QW and 40 mg QW): > 32 months
- Responses [2]: no responses
